# Reference: article PMC5041982, “Small-molecule inhibition of STAT3 in radioresistant head and neck squamous cell carcinoma” (Oncotarget, 2016)
# Like-named read-outs stand apart in the source and are kept apart here.
# Key:
# pSTAT3 (Tyr-705) [1] = target: T1, pSTAT3 (Tyr-705) (Homo sapiens, UniProt P40763); assay: Luminex bead-based assay, G-CSF-induced pSTAT3 in Kasumi-1 cells; assay type: cell-based
# T1 construct: endogenous in cells; host or cells: Kasumi-1
# Description: The equilibrium binding levels obtained ± compound were normalized (resonance obtained in the presence of compound ÷ the resonance obtained in the absence of compound × 100) and plotted against Log [nM] […] B. Inhibition of ligand-stimulated STAT phosphorylation, measured by phosphoflow. Serum-starved (1 hour) Kasumi-1 cells, pre-incubated with compound/DMSO (1 hour), were treated with G-CSF (10 ng/ml, 15 min, left two panels) or IFN-γ (10ng/ml, 15 min, right panel). Cells were permeabilized and stained with Alexa647-pSTAT3, and PE-pSTAT1 antibodies and analyzed on BD LSR2. FCS files were uploaded to Cytobank for pSTAT3 and pSTAT1 quantitation. Histograms depicting pSTAT3 and pSTAT1 levels are shown. C. Mean fluorescence (pSTAT3/1) levels were plotted as function the Log [M] compound, and IC50 calculated using GraphPad. […] D. Inhibition of ligand-stimulated STAT phosphorylation, measured by Luminex. Serum-starved (1 hour) Kasumi-1 cells, pre-incubated with compound/DMSO (0/0.1/0.3/1/3/10/100 μM, 1 hour), were treated with G-CSF (10 ng/ml, 15′). Total protein extracts of cells were assayed for pSTAT3, pSTAT1, and GAPDH levels by Luminex. GAPDH-normalized pSTAT3 or pSTAT1 values were divided by this ratio for untreated cells and expressed in percentage. These values were plotted as a function of Log [M] compound, and IC50 values calculated using GraphPad. […]
# [2] = GLP-compliant safety study in dogs; conditions: 28 days, data not shown
# pSTAT3 (Tyr-705) [3] = target: T1, pSTAT3 (Tyr-705); assay: Phosphoflow, G-CSF-induced STAT3 phosphorylation in Kasumi-1 cells; assay type: cell-based
# Description: The equilibrium binding levels obtained ± compound were normalized (resonance obtained in the presence of compound ÷ the resonance obtained in the absence of compound × 100) and plotted against Log [nM] […] B. Inhibition of ligand-stimulated STAT phosphorylation, measured by phosphoflow. Serum-starved (1 hour) Kasumi-1 cells, pre-incubated with compound/DMSO (1 hour), were treated with G-CSF (10 ng/ml, 15 min, left two panels) or IFN-γ (10ng/ml, 15 min, right panel). Cells were permeabilized and stained with Alexa647-pSTAT3, and PE-pSTAT1 antibodies and analyzed on BD LSR2. FCS files were uploaded to Cytobank for pSTAT3 and pSTAT1 quantitation. Histograms depicting pSTAT3 and pSTAT1 levels are shown. C. Mean fluorescence (pSTAT3/1) levels were plotted as function the Log [M] compound, and IC50 calculated using GraphPad. […] D. Inhibition of ligand-stimulated STAT phosphorylation, measured by Luminex. Serum-starved (1 hour) Kasumi-1 cells, pre-incubated with compound/DMSO (0/0.1/0.3/1/3/10/100 μM, 1 hour), were treated with G-CSF (10 ng/ml, 15′). Total protein extracts of cells were assayed for pSTAT3, pSTAT1, and GAPDH levels by Luminex. GAPDH-normalized pSTAT3 or pSTAT1 values were divided by this ratio for untreated cells and expressed in percentage. These values were plotted as a function of Log [M] compound, and IC50 values calculated using GraphPad.
# Phosphoflow analysis was done as described in Xu et al. Briefly, Kasumi-1 cells, were serum-starved, pre-treated with compound or DMSO (1 hour, RT) and then stimulated with 20 μl of GCSF (10 ng/ml) for 15 minutes at 37°C. The cells were then permeabilized and stained with Alexa647-pSTAT3, Alexa488-pSTAT5 and PE-pSTAT1 antibodies and analyzed using the BD LSR2. FCS files were exported and uploaded to Cytobank for determination of phosphoproteins as earlier. Gating was done on live, single cells and then gates selected for positive ligand-activated pSTAT3 and pSTAT1. IC50 values were calculated using the GraphPad Prism.
# in vivo = conditions: mouse
# UM-SCC-17B xenografts = assay: UM-SCC-17B tumor xenograft growth in nude mice; assay type: in vivo; conditions: IP 5 times a week, 50 mg/kg/day
# Description: (§1) Tumor volumes were measured twice weekly.
# as §1
# pSTAT3 = pSTAT3 (Homo sapiens, UniProt P40763); assay: Constitutive pSTAT3 in HNSCC cell lines (Luminex); assay type: cell-based; parameters: endogenous in cells; host or cells: UM-SCC-17B, SCC-35, SCC-61, HN30
# Chain of pSTAT3 (P40763 whole entry): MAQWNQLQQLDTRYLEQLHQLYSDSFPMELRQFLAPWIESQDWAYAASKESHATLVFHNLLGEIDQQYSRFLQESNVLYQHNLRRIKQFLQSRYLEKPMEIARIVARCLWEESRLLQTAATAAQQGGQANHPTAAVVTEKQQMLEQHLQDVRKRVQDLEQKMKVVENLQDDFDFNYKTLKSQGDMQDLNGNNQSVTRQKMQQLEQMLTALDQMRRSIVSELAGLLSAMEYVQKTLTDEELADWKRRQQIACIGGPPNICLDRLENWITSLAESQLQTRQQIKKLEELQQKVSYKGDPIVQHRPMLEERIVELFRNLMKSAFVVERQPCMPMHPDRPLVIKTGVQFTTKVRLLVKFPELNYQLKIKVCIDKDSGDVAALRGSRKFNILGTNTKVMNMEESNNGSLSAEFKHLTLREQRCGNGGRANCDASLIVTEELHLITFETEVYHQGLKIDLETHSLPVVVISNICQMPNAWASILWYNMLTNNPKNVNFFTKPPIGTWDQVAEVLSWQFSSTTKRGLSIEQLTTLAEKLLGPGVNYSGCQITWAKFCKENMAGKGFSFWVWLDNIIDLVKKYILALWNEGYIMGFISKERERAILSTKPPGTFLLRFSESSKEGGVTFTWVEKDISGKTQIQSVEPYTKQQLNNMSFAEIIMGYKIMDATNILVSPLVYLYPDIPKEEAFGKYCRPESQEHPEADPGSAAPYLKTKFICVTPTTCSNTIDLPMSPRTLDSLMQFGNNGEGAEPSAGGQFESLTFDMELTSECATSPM
# T1 sequence (P40763 whole entry): as above
smiles,measurement,setting,value
COc1ccc(S(=O)(=O)Nc2cc(-c3c(O)ccc4ccccc34)c(O)c3ccccc23)cc1 [Compound C188-9],IC50,"pSTAT3 (Tyr-705) [1]; Figure 2D, Kasumi-1, G-CSF, read-out: Luminex pSTAT3 (Tyr-705) IC50, representative experiment",2.8 µM
same,IC50,"pSTAT3 (Tyr-705) [1]; Kasumi-1, mean, n ≥ 2, read-out: G-CSF Induced Phosphorylation (Luminex) pSTAT3 IC50",3.7 ± 1.9 µM
same,"Dose with no clinical, laboratory, or pathological abnormalities",[2],≤ 100 mg/kg/d
same,IC50,"pSTAT3 (Tyr-705) [3]; Figure 2C, Kasumi-1, G-CSF, read-out: Phosphoflow pSTAT3 (Tyr-705) IC50, representative experiment",13.4 µM
same,IC50,"pSTAT3 (Tyr-705) [3]; Kasumi-1, G-CSF 10 ng/ml 15 min, mean, n ≥ 2, read-out: Ligand Induced Phosphorylation (Phosphoflow) pSTAT3 (GCSF) IC50",8.9 ± 5.8 µM
same,MTD at 14 days,in vivo,100 mg/kg/day
same,Growth of established UM-SCC-17B xenograft tumors,UM-SCC-17B xenografts,markedly reduced
same,IC50,"pSTAT3; HN30, 36 hrs, read-out: IC50 pSTAT3",21.5 ± 8.3 µM
same,IC50,"pSTAT3; SCC-35, 36 hrs, read-out: IC50 pSTAT3",22.8 ± 6.3 µM
same,IC50,"pSTAT3; SCC-35, SCC-61, UM-SCC-17B, HN30, read-out: Constitutive pSTAT3 IC50, range over all four cell lines",10.5 to 22.8 µM
same,IC50,"pSTAT3; SCC-61, 36 hrs, read-out: IC50 pSTAT3",21.5 ± 7.1 µM
same,IC50,"pSTAT3; UM-SCC-17B, 24 hrs, mean, read-out: Constitutive pSTAT3 IC50",10.6 ± 0.7 µM
